# Assay results: patent US10993999B2, “Materials and methods for producing improved lentiviral vector particles” (IMMUNE DESIGN CORP., priority 2012, dated 2021)
# Tested on: Human PBMCs (DCs, B-cells, T-cells)
# Test: Transduction specificity in GM-CSF/IL-4 treated human PBMC culture
# Details: all cell populations
compound,measurement,value
Cc1ccnc2c1NC(=O)c1cccnc1N2C1CC1 [Nevirapine],effect of RT inhibitor on transduction,completely ablated
